Bridge positions count the residues as written; N and C are the ends. Peptide text beside a SMILES is read from it.
Columns and labels:
[1] = system: human umbilical vein endothelial cells (HUVEC); experiment: In vitro HUVEC proliferation assay (MTS) for hVEGF inhibitory peptides; format: cell-based; conditions: 10 ng/ml VEGF, 48 hrs
Procedure: FIG. 12 provides a graph showing HUVEC results for designated peptides.
In this Example, experiments conducted to determine the anti-proliferative activity of anti-VEG peptides are described. The antiproliferative activity of VEGF inhibitory peptides was determined using human umbilical vein endothelial cells (HUVEC) as follows. An early passage (less than six) of HUVEC was seeded in 96-well plates at 5000 cells per well and starved for 18 hrs in 200 μl EBM medium (Cambrex) without growth factors and supplemented with 0.5% FBS, at 37° C. with 5% CO2. The medium was replaced with 180 μl of growth medium containing EBM medium with 5% fetal bovine serum and 1% DMSO. Then, 20 μl of VEGF preincubated for one hour with varying peptide concentrations (the final DMSO concentration of all the wells was 1%) were added to the wells for a final VEGF concentration of 10 ng/ml. Human VEGF antibody (R & D Systems) was used as a positive control. Cells with 0.31 to 20 ng/ml concentrations of VEGF alone in the growth medium were used to construct a standard growth curve. The cells were further incubated for 48 hrs, and the cell proliferation was measured using an MTS assay (CellTiter 96 Aqueous One Solution Cell Proliferation Assay Kit; Promega). Then, 40 μl of the MTS tetrazolium solution was added to each well and after 3 and 4 hours incubation, the plates were read at 490 nm. […]

Human VEGF165 = target: T1, Human VEGF165 (Homo sapiens, UniProt P15692); experiment: BIAcore binding analysis of VEGF-binding peptides (surface plasmon resonance); conditions: two state reaction model with conformation change; 25° C.
T1 construct: purchased Biosource
T1 sequence (P15692 27-191 isoform P15692-4): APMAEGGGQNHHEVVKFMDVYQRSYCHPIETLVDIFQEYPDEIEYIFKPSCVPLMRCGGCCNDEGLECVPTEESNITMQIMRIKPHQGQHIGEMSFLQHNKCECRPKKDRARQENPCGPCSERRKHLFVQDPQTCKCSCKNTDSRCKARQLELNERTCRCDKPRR
Procedure: FIG. 3 provides results of a BIACORE binding analysis of VEGF binding peptides. Binding curves were obtained as described in the Examples. Data were fit to a two state reaction model with conformation change: Analyte (A) binds to ligand (B) to form complex AB.
In this Example, experiments conducted to assess the affinities of the peptides for VEGF are described. Affinities of the peptides for VEGF were measured using a BIAcore™-3000 surface plasmon resonance system (Biacore). A CM5 sensor chip was conditioned with 50 mM NaOH, 0.1% HCl, 0.1% SDS, and 0.08% H3PO4, and activated for covalent coupling of VEGF using N-ethyl-N′-(3-dimethylaminopropyl)-carbodiimide hydrochloride (EDC) and N-hydroxysuccinimide (NHS) according to the supplier's instructions (Biacore). Human VEGF165 (Biosource) was diluted to 5 μg/ml in 20 mM sodium acetate, pH 4.8 and injected at a flow rate of 2 μl/min to achieve approximately 1000 to 6000 response units (RU) of coupled protein. TNF-alpha (human TNF-alpha, Biosource, Int., Camarillo, Calif.) was similarly coupled to the CM5 sensor chip to approximately 850 to 3500 RU in the reference lane. A solution of 1 M ethanolamine was injected as a blocking agent. In some experiments, an additional solution of EDC and NHS were injected to improve baseline stability and a solution of 1 M ethanolamine injected as a blocking agent. The reference lane was activated with EDC and NHS and blocked with ethanolamine.
Peptides were synthesized using standard FMOC chemistry, purified by reverse phase HPLC to >95% purity (SynPep), and stored at 10 mg/mL in DMSO. For kinetic measurements, twofold serial diluted peptides in HBS-EP buffer, 0.01 M HEPES pH 7.4, 0.15 M NaCl, 3 mM EDTA, 0.005% Surfactant P20 (Biacore), were injected at 25° C. at a flow rate of 20 μL/min. Two-fold serial diluted DMSO samples and buffer samples were also injected for background subtraction. Kinetic parameters were calculated using BIAevaluation 3.1 software.

human skin = experiment: Repeat insult patch testing (RIPT) on human skin; format: in vivo; conditions: 0.5% (w/v) in deionized water/butylene glycol; approximately 0.2 mL; 200 human volunteers
Procedure: In this Example, experiments conducted to determine the patch test result for anti-VEGF peptides are described. Samples of the aVEGF peptide CK37281 dosed at 0.5% (w/v) were formulated in a base formulation containing deionized water/butylene glycol. Approximately 0.2 mL of the formulation was applied to 200 human volunteers in a repeated insult patch test according to procedures designed by Clinical Research Laboratories, Inc. (Piscataway, N.J.).

Row | ka2 (Human VEGF165) | kd1 (Human VEGF165) [s⁻¹] | Kd (Human VEGF165) [µM] | Compound | IC50 [1] | dermal irritation or sensitization (human skin)
1 | 1.5 e-3 s^−1 | 0.0122 | – | CC(C)C[C@@H]1NC(=O)[C@H](CC(N)=O)NC(=O)[C@H](Cc2ccc(O)cc2)NC(=O)[C@@H](NC(=O)[C@H](C)N)CSSC[C@@H](C(=O)NCC(=O)NCC(=O)NCC(=O)O)NC(=O)[C@H]([C@@H](C)O)NC(=O)[C@H](Cc2c[nH]c3ccccc23)NC(=O)CNC(=O)[C@H](Cc2ccc(O)cc2)NC1=O [CK37281, YNLYGWT] | micromolar range | no dermal irritation or sensitization
2 | 6.34 e-3 s^−1 | 0.318 | 4.9 | CC(C)C[C@@H]1NC(=O)[C@H](CC(N)=O)NC(=O)[C@@H](NC(=O)[C@H](C)N)CSSC[C@@H](C(=O)NCC(=O)NCC(=O)NCC(=O)O)NC(=O)[C@H](Cc2c[nH]c3ccccc23)NC(=O)[C@H](Cc2ccccc2)NC(=O)[C@H](Cc2c[nH]cn2)NC(=O)[C@@H]2CCCN2C(=O)[C@H](Cc2c[nH]c3ccccc23)NC1=O [CK37283] (H-ACNLWPHFWCGGG-OH; disulfide 2-10; N-terminus and C-terminus assumed) | micromolar range | –
